According to patent publication US4376770A, “Cephalosporin analogs for oral use” (Shionogi & Co., Ltd., priority 1980, dated 1983):
Read-outs that look alike come from different tables or passages of the source.

Tests used:
[1] = test system: Escherichia coli EC-14; assay: Protection test in mice challenged intraperitoneally with Escherichia coli EC-14; assay type: in vivo; details: for ED50: Escherichia coli, 168 h
Experimental: To each group consisting of 5 to 10 mice is challenged 2 to 3×10^5 Escherichia coli EC-14 in 5% mucin intraperitoneally. After 1 hour and 5 hours, a suspension of the ester (1) in the foregoing experiment in 5% acacia solution is administered enterally using a tube into stomach. From the survival rate after 7 days, ED50 of the drug is calculated, and the value in mg/kg is interpreted as the corresponding carboxylic acid.
For using as control, it is necessary to use the effect of the corresponding carboxylic acid. […] Then instead, the ED50 value of the corresponding carboxylic acid (2) on subcutaneous injection is assayed and this is used to evaluate the enteral absorption of the ester (1).
The control value of ED50 for the carboxylic acid (2) is estimated as follows: To each group consisting of 5 to 10 mice challenged by Escherichia coli EC-14 intraperitoneally as in the case of oral experiment above is injected a solution of the carboxylic acid (2) in 0.7% aqueous sodium hydrogen carbonate subcutaneously after 1 and 5 hours after the challenge. The ED50 value is calculated from the survival rate from 7 days and expressed in mg/kg value.

[2] = prior-art compound, statement in words; cited from earlier work
[3] = prior-art compound, statement in words; cited from earlier work; remark: listed apart in the source
[4] = EC14, sc, subcutaneous in 0.7% aqueous sodium hydrogen carbonate 1 and 5 hours after challenge, survival 7 days, control for ester, read-out: ED50 of Acid (2) subc.
[5] = subcutaneous in 0.7% aqueous sodium hydrogen carbonate 1 and 5 hours after challenge, survival 7 days, control for ester, 10080 min
[6] = EC14, po, p.o. 1 and 5 hours after challenge, survival after 7 days, value interpreted as the corresponding carboxylic acid, read-out: ED50 of Ester (1) p.o.
[7] = p.o. 1 and 5 hours after challenge, survival after 7 days, value interpreted as the corresponding carboxylic acid, 10080 min
[8] = subcutaneous in 0.7% aqueous sodium hydrogen carbonate 1 and 5 hours after challenge, survival 7 days, control for ester

CCC(C#N)C(=O)N[C@]1(OC)C(=O)N2C(C(=O)O)=C(CSc3nnc(C)s3)CO[C@@H]21 (some centres unmarked) [11 (Acid (2))]
ED50 [1, 4]: 0.87 mg/kg

CO[C@@]1(NC(=O)C(C)C#N)C(=O)N2C(C(=O)O)=C(CSc3nnnn3C)CO[C@@H]21 (some centres unmarked) [1 (Acid (2))]
ED50 [1, 4]: 1.68 mg/kg

CCC(C#N)C(=O)N[C@]1(OC)C(=O)N2C(C(=O)O)=C(CSc3nnnn3C)CO[C@@H]21 (some centres unmarked) [5 (Acid (2))]
ED50 of Acid (2) subc. [1, 5]: 0.45 mg/kg

CCC(C#N)C(=O)N[C@]1(OC)C(=O)N2C(C(=O)O)=C(CSc3nncs3)CO[C@@H]21 (some centres unmarked) [9 (Acid (2))]
ED50 [1, 4]: 0.77 mg/kg

CCOC(=O)OC(C)OC(=O)C1=C(CSc2nnnn2C)CO[C@H]2N1C(=O)[C@]2(NC(=O)C(C#N)CC)OC (single isomer, unassigned) [compound 5]
ED50 [1, 6]: 2.22 mg/kg

CCCC(C#N)C(=O)N[C@]1(OC)C(=O)N2C(C(=O)O)=C(CSc3nnnn3C)CO[C@@H]21 (some centres unmarked) [3 (Acid (2))]
ED50 [1, 4]: 0.6 mg/kg

CCCC(C#N)C(=O)N[C@]1(OC)C(=O)N2C(C(=O)OC(C)OC(=O)OCC)=C(CSc3nnnn3C)CO[C@@H]21 (single isomer, unassigned) [compound 8]
ED50 of Ester (1) p.o. [1, 7]: 2.82 mg/kg

CCCC(C#N)C(=O)N[C@]1(OC)C(=O)N2C(C(=O)O)=C(CSc3nnnn3C)CO[C@@H]21 (some centres unmarked) [8 (Acid (2))]
ED50 of Acid (2) subc. [1, 8]: 0.60 mg/kg

CC(=O)OCC1=C(C(=O)O)N2C(=O)[C@@H](NC(=O)CC#N)[C@H]2OC1 [7β-Cyanoacetamido-1-dethia-1-oxacephalosporanic acid]
antibacterial activity [2]: weak antibacterial

CCOC(=O)OC(C)OC(=O)C1=C(CSc2nnnn2C)CO[C@H]2N1C(=O)[C@]2(NC(=O)C(C#N)CC)OC (single isomer, unassigned) [No. 6, 7β-(2-cyano-n-butyryl)amino-7α-methoxy-3-(1-methyl-5-tetrazolyl)thiomethyl-1-dethia-1-oxa-3-cephem-4-carboxylic acid 1-(ethoxycarbonyloxy)ethyl ester]
ED50 of Ester (1) p.o. [1, 7]: 2.35 mg/kg

CCCCC(C#N)C(=O)N[C@]1(OC)C(=O)N2C(C(=O)O)=C(CSc3nnnn3C)CO[C@@H]21 (some centres unmarked) [4 (Acid (2))]
ED50 [1, 4]: 3.18 mg/kg

CCC(C#N)C(=O)N[C@]1(OC)C(=O)N2C(C(=O)O)=C(CSc3nncs3)CO[C@@H]21 (some centres unmarked) [10 (Acid (2))]
ED50 of Acid (2) subc. [1, 8]: 0.77 mg/kg

7β-(2-cyanopropionamido)-7α-methoxy-3-(1-methyl-5-tetrazolyl)thiomethyl-1-dethia-1-oxa-3-cephem-4-carboxylic acid pivaloyloxymethyl ester [No. 1]
ED50 of Ester (1) p.o. ([1]; p.o. 1 and 5 hours after challenge, survival after 7 days, value interpreted as the corresponding carboxylic acid): 1.39 mg/kg

CCCCC(C#N)C(=O)N[C@]1(OC)C(=O)N2C(C(=O)OCOC(=O)C(C)(C)C)=C(CSc3nnnn3C)CO[C@@H]21 (some centres unmarked) [compound 4]
ED50 [1, 6]: 29.8 mg/kg

CCCC(C#N)C(=O)N[C@]1(OC)C(=O)N2C(C(=O)O)=C(CSc3nnnn3C)CO[C@@H]21 (some centres unmarked) [7 (Acid (2))]
ED50 of Acid (2) subc. [1, 8]: 0.60 mg/kg

CCOC(=O)OC(C)OC(=O)C1=C(CSc2nncs2)CO[C@H]2N1C(=O)[C@]2(NC(=O)C(C#N)CC)OC (some centres unmarked) [compound 10]
ED50 [1, 6]: 3.23 mg/kg

CCCC(C#N)C(=O)N[C@]1(OC)C(=O)N2C(C(=O)OC(C)OC(=O)OCC)=C(CSc3nnnn3C)CO[C@@H]21 (single isomer, unassigned) [compound 7]
ED50 [1, 6]: 4.7 mg/kg

CCC(C#N)C(=O)N[C@]1(OC)C(=O)N2C(C(=O)O)=C(CSc3nnnn3C)CO[C@@H]21 (some centres unmarked) [2 (Acid (2))]
ED50 [1, 4]: 0.47 mg/kg

CCC(C#N)C(=O)N[C@]1(OC)C(=O)N2C(C(=O)O)=C(CSc3nnnn3C)CO[C@@H]21 (some centres unmarked) [6 (Acid (2))]
ED50 of Acid (2) subc. [1, 5]: 0.45 mg/kg

CCCC(C#N)C(=O)N[C@]1(OC)C(=O)N2C(C(=O)OCOC(=O)C(C)(C)C)=C(CSc3nnnn3C)CO[C@@H]21 (some centres unmarked) [compound 3]
ED50 [1, 6]: 5.32 mg/kg

CC(=O)OCC1=C(C(=O)OCOC(=O)C(C)(C)C)N2C(=O)[C@@H](NC(=O)CC#N)[C@H]2SC1 [7β-Cyanoacetamidocephalosporanic acid pivaloyloxymethyl ester]
oral absorption [3]: does not show oral absorption sufficient as clinical drugs

CCC(C#N)C(=O)N[C@]1(OC)C(=O)N2C(C(=O)OCOC(=O)C(C)(C)C)=C(CSc3nncs3)CO[C@@H]21 (some centres unmarked) [No. 9]
ED50 [1, 6]: 6.5 mg/kg

CCC(C#N)C(=O)N[C@]1(OC)C(=O)N2C(C(=O)OCOC(=O)C(C)(C)C)=C(CSc3nnc(C)s3)CO[C@@H]21 (some centres unmarked) [compound 11]
ED50 [1, 6]: 3.7 mg/kg
